From PMC7011792 (Journal of Enzyme Inhibition and Medicinal Chemistry, 2017)
Like-named read-outs stand apart in the source and are kept apart here.

Tests used:
[1] = molecular target: T1, BuChE (EC 3.1.1.8) from human (Homo sapiens, UniProt P06276); experiment: Human BuChE inhibition, Ellman's method; type: biochemical; details: huBuChE; mean ± SEM
T1 construct: purchased Sigma-Aldrich B4186
Description: (§1) AChE (EC 3.1.1.7, Type VI-S, from electric eel, C3389; from human, C1682) and BuChE (EC 3.1.1.8, from equine serum, C0663; from human, B4186), 5,5'-dithiobis (2-nitrobenzoic acid) (DTNB, D218200), acetylthiocholine iodide (ATC, A5751), and butyrylthiocholine iodide (BTC, B3253) were obtained from Sigma-Aldrich (St. Louis, MO).
(§2) The inhibitory effects of the synthesised compounds in this paper were evaluated according to our previously reported method. Briefly, AChE/BuChE stock solution was diluted to give 2.5 units/mL (for eeAChE, eqBuChE, and huAChE) or 0.5 units/mL for huBuChE. ATC/BTC iodide solution (0.075 M) was prepared in deionised water. DTNB solution (0.01 M) was prepared using water containing 0.15% (w/v) sodium bicarbonate. The assay buffer was prepared as follows: potassium dihydrogen phosphate (1.36 g, 10 mmol) was dissolved in 100 ml of water. The pH of the solution was then adjusted to 8.0 ± 0.1 with KOH. Stock solutions of the test samples were dissolved in ethanol to give a final concentration of 10^−4 M when diluted to the final volume of 3.32 ml. For each compound, a dilution series of at least five different concentrations (normally 10^−5–10^−9 M) were prepared.
For measurement, a cuvette containing 3.0 ml of phosphate buffer, 100 µL of AChE or BuChE, 100 µL of DTNB, and 100 µL of the test compound solution were added in sequence. The reaction was initiated after adding 20 µL of ATC or BTC, and the solution was mixed immediately. Two minutes (eeAChE and eqBuChE) or 15 min (huAChE and huBuChE) after ATC or BTC addition, the absorption was measured at 25 °C (eeAChE and eqBuChE) or 37 °C (huAChE and huBuChE) at 412 nm, using a Shimadzu 160 spectrophotometer. For the reference value, 100 µL of water replaced the test compound solution. For the blank control, additionally 100 µL of water replaced the enzyme solution. The measurement for each concentration was assayed in triplicate. GraphPad Prism 5 was used for data processing. […] The IC50 values were calculated according to the curve, and the data were shown in mean ± SEM.

[2] = molecular target: T2, AChE (EC 3.1.1.7) from electric eel (Electrophorus electricus, UniProt O42275); experiment: biochemical
T2 construct: purchased Sigma-Aldrich C3389
Description: as §1
as §2, with “Briefly, AChE/BuChE stock solution was diluted to give 2.5 units/mL (for eeAChE, eqBuChE, and huAChE) or 0.5 units/mL for huBuChE.” left out, “DTNB solution (0.01 M) was prepared using water containing 0.15% (w/v) sodium bicarbonate.” left out
For measurement, a cuvette containing 3.0 ml of phosphate buffer, 100 µL of AChE or BuChE, 100 µL of DTNB, and 100 µL of the test compound solution were added in sequence. The reaction was initiated after adding 20 µL of ATC or BTC, and the solution was mixed immediately. […] For the reference value, 100 µL of water replaced the test compound solution. For the blank control, additionally 100 µL of water replaced the enzyme solution. The measurement for each concentration was assayed in triplicate. GraphPad Prism 5 was used for data processing. The inhibition curve was fitted by plotting percentage enzyme activity (100% for the reference) versus logarithm of test compound concentration. The IC50 values were calculated according to the curve, and the data were shown in mean ± SEM.
The inhibitory effects on ChEs of all the target compounds were determined according to Ellman’s method. AChE from electrophorus electricus (eeAChE) and BuChE from equine serum (eqBuChE) were used in the assays.

[3] = test system: ICR mice
Description: The activity of AST and ALT, two indicators of liver damage, was determined using corresponding assay kit (EF551 and EF550 for ALT, EH027, and EF548 for AST, Wako, Japan).
One hour after the collection of retrobulbar blood, mice were sacrificed and livers were harvested for morphological studies by using immunohistochemical method. Two 3 mm sections of each liver extending from the hilus to the margin of the left lateral lobe were isolated by Ultra-Thin Semiautomatic Microtome (Leica RM2245, Germany) and immediately placed in 10% buffered formaldehyde, fixed for two days, and embedded together in one paraffin block by using Paraffin Embedding Station (Leica EG1150H, Germany). Subsequently, 5 µm sections were prepared from these paraffin blocks. They were deparaffinated and stained with hematoxylin and eosin or by means of the periodic acid-Schiff procedure for glycogen.

[4] = 22 h after ig administration, 151.5 µmol/kg, mice serum, n = 6
[5] = 36 h after ig administration, 151.5 µmol/kg, mice serum, n = 6

T2 sequence (O42275 24-633): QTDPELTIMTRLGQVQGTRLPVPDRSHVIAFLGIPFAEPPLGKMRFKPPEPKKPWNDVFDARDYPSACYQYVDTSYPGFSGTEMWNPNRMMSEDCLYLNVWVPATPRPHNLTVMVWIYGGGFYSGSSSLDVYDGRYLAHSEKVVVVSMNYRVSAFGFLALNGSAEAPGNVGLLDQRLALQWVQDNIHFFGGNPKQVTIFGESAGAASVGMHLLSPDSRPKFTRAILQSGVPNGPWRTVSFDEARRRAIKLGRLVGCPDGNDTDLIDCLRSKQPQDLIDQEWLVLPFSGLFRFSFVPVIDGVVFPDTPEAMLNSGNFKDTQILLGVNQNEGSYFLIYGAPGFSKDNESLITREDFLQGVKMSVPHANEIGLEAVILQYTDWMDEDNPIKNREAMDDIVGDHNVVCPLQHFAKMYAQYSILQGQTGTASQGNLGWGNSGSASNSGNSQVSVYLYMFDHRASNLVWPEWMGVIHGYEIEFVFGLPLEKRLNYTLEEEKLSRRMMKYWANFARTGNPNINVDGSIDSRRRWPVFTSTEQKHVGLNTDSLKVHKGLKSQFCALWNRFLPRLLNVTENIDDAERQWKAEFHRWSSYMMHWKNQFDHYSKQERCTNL
T1 sequence (P06276 29-602): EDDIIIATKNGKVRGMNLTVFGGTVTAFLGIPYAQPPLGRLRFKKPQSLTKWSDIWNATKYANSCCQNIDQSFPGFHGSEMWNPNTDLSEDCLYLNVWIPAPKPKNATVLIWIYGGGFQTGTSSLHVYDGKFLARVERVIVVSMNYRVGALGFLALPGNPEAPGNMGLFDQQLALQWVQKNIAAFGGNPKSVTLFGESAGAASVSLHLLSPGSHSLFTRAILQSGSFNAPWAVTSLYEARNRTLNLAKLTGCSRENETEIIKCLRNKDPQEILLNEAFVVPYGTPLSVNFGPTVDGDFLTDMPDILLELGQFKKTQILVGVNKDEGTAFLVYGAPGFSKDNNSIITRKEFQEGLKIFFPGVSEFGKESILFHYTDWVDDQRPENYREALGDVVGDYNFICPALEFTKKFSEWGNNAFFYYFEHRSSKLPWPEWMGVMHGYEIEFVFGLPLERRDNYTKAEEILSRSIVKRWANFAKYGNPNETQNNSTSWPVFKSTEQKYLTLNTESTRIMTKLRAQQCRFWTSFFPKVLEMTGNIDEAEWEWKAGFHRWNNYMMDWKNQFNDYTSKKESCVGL

## O=C(/C=C/c1ccc([N+](=O)[O-])cc1)NCCCCCCNc1c2c(nc3ccccc13)CCCC2 [Compound 19, (E)-3-(4-nitrophenyl)-N-(6-((1,2,3,4-tetrahydroacridin-9-yl)amino)hexyl)acrylamide]
[1]
  IC50: 6.3 nM
[2]; AChE from electric eel, mean ± SEM of three experiments
  IC50: 2.7 ± 0.4 nM
[2]; eqBuChE IC50 / eeAChE IC50
  Selectivity index (SI) = BuChE IC50/AChE IC50: 2.4
[3]; 8 h after ig administration, 151.5 µmol/kg, mice serum, n = 6
  AST (U/L): 119.6 ± 10.8 U/L
[3]; [4]
  ALT (U/L): 44.4 ± 3.9 U/L
  AST (U/L): 130.6 ± 8.2 U/L
[3]; [5]
  ALT (U/L): 40.2 ± 2.5 U/L
  AST (U/L): 133.9 ± 13.5 U/L
[3]; mouse, in vivo
  ALT (U/L): 36.0 ± 2.9 U/L
  morphologic changes in liver: did not cause remarkable morphologic changes in liver
